US20250090510A1, “eIF4G1-eIF1 INHIBITORS AND USE THEREOF” (YEDA RESEARCH AND DEVELOPMENT CO. LTD., priority 2022, published 2025)

Biological target: T1, eIF4G1 (Homo sapiens, UniProt Q04637)
T1 construct: The pET-28-His-bdSumo-eIF4G1 (675-1129) was generated using eIF4G1 (675-1129) as insert and pET-28-14His-bdSumo as backbone; bdSUMO (N); made in house; host or cells: E. coli BL21
Test: Intrinsic fluorescence of His-eIF4G1
Assay type: binding
Conditions: 0-256 μM, 5 minutes, excitation 280 nm, emission 350 nm; read-out: IC50, loss of eIF4G1 intrinsic fluorescence
Text: FIGS. 1A-G: Identification and initial characterization of eIF1-eIF4G1 inhibitors using a high-throughput drug screen (HTS). (1A) A flowchart describing the steps of the recombinant eIF1-eIF4G1 split-RL HTS. (1B) Selection of drugs that inhibit leaky scanning. HEK293T cells were transfected with a short 5′UTR bearing GFP reporter gene described on the top, treated with the indicated HTS hits, and then analyzed by western blot with GFP antibody. US and DS denote upstream and downstream AUG initiation sites, respectively. (1C) A graph showing the change in the ratio of the upstream and downstream AUG following treatment with the indicated drugs. (1D) The chemical structure of the eIF1-eIF4G1 inhibitors, i14G1-10 and i14G1-12. (1E) His-tagged eIF4G1 and His-tagged eIF1 were expressed in BL21 bacteria and purified using nickel NTA beads. Purified His-tagged eIF4G1 and His-tagged eIF1 were incubated with the indicated doses of either i14G1-10 (0-256 μM) or i14G1-12 (0-256 μM) for 5 minutes, followed by fluorescence measurement. […] IC50 was calculated using Graphpad prism 9. […]
Intrinsic fluorescence of His-eIF1 and His-eIF4G1. […] After 5 minutes, fluorescence (280/350) was measured on Cytation 5 multi-mode reader (Biotek). The fluorescence intensity values corresponding to respective concentration in both i14G1-10 and i14G1-12 treatments were plotted and IC50 was calculated using GraphPad Prism 9.0. […]

T1 sequence (Q04637 675-1129): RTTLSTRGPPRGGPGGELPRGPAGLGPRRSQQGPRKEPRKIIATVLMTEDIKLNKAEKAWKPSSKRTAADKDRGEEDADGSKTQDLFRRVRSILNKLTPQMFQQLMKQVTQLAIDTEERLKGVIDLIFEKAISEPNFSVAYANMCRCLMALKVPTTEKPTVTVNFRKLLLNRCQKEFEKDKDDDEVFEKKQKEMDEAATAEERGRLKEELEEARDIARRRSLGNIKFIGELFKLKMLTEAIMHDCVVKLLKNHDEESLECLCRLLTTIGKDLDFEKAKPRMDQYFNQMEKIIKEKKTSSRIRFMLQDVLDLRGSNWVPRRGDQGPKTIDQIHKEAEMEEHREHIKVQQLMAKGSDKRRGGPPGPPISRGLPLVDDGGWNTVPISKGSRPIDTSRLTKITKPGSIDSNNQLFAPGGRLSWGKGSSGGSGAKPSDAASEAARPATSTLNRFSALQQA

Cn1ccnc1S/C(=C/C=C(C#N)C#N)c1ccc(Cl)cc1 [i14G1-12]
IC50: 58.4 µM
